Assay results taken from PMC10060569 (Frontiers in Pharmacology, 2023).

How the values were obtained:
hP2X2R = biological target: T1, hP2X2R (Homo sapiens, UniProt Q9UBL9); assay: TEVC of ATP-induced currents, hP2X2R in X. laevis oocytes (steady-state protocol); format: cell-based
T1 construct: expressed in transfected cells; host or cells: Xenopus laevis oocytes (cRNA injection)
T1 sequence (Q9UBL9 1-471): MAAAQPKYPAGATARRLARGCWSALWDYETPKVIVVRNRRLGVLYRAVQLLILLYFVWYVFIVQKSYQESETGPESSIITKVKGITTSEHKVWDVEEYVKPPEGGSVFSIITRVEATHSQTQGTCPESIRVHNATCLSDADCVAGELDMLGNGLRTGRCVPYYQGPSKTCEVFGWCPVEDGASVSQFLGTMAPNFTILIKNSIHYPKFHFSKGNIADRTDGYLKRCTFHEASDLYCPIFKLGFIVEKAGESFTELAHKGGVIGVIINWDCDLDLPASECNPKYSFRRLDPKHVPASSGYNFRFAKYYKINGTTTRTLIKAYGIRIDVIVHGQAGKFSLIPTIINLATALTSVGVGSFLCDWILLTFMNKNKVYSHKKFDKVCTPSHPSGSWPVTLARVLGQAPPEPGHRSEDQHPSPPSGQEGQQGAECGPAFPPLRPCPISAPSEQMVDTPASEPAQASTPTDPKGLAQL
Description: Oocyte expression plasmids encoding the wild-type (wt) and N-terminally His-tagged (His-) fusion constructs of the hP2X2R, hP2X3R, hP2X4R, and hP2X7R, and the mutant His-^20RMVL^23KVIV^23S^26N-hP2X1R, S^15V-rP2X3R, and His-S^15V-hP2X3R were the same as used in previous research ([Hausmann et al., 2006]; [Wolf et al., 2011]; [Hausmann et al., 2014]; [Obrecht et al., 2019]). In most cases, the N-terminal His-tagged variants of P2XRs were used here and in the previous studies to allow biochemical analyses on affinity-purified proteins using the same constructs. Although this was not required for the present study, it allows for better comparability with our previous studies. Capped cRNAs of different P2XRs were already available in the research group or were synthesized as previously described ([Schmalzing et al., 1991]; [Stolz et al., 2015]). cRNA was injected into collagenase-defolliculated X. laevis oocytes in aliquots of 41 nl or 23 nl (see Supplementary Table S1 for the amount of cRNA used for expression of the indicated P2XR) using a Nanoliter 2000 injector (World Precision Instruments, Sarasota, United States of America) as described previously ([Hausmann et al., 2014]; [Stolz et al., 2015]; [Obrecht et al., 2019]). To express the heteromeric hP2X2/3 receptor, cRNAs encoding His-hP2X2R and wt-hP2X3R were coinjected at a ratio (w/w) of 1:6. Oocytes were stored at 19°C in an oocyte ringer solution (ORi^+) containing 90 mM NaCl, 1 mM KCl, 1 mM CaCl2, 1 mM MgCl2, and 10 mM HEPES (Carl Roth, Karlsruhe, Germany) adjusted to pH 7.4 with NaOH and supplemented with 50 μg/ml gentamicin (AppliChem, Darmstadt, Germany). The procedures followed for the maintenance of and the surgical treatment for X. laevis adults were approved by the governmental animal care and use committee of the State Agency for Nature, Environment, and Consumer Protection (LANUV, Recklinghausen, Germany; reference no. 81-02.04.2019. A355), in compliance with Directive 2010/63/EU of the European Parliament and of the Council on the protection of animals used for scientific purpose.
Ion currents mediated by P2X receptors were evoked by the indicated concentration of ATP or α,β-meATP and were recorded 1 or 2 days after cRNA injection at ambient temperature at a holding potential of −60 mV by two-electrode voltage clamp (TEVC) as previously described ([Hausmann et al., 2006]). Calcium-free ORi^− solution (90 mM NaCl, 1 mM KCl, 2 mM MgCl2, 10 mM HEPES, pH 7.4) was used to avoid bias due to calcium-activated chloride channels (CaCC) endogenously expressed in X. laevis oocytes ([Miledi, 1982]; [Methfessel et al., 1986]). For recordings of wt-hP2X7R, the composition of the ORi^− solution was modified according to protocols described previously and contained 100 mM NaCl, 2.5 mM KCl, 1 mM MgCl2, 5 mM HEPES, pH 7.4 ([Klapperstück et al., 2000]). The oocytes were continuously superfused with ORi^− by gravity flow (5–10 ml/min). The agonists ATP or α,β-meATP and the investigated NSAIDs were diluted in ORi^− on the day of the recording. The following agonist concentrations were used for the different P2X subtypes: 1 μM ATP (hP2X1R mutant, hP2X3R, rP2X3R, S^15V-hP2X3R, and S^15V-rP2X3R); 10 μM ATP (hP2X2R and hP2X4R); 300 μM free ATP^4- (hP2X7R); and 1 μM α,β-meATP (hP2X2/3R). […]

S15V-rP2X3R = biological target: T2, S15V-rP2X3R (Rattus norvegicus, UniProt P49654, S15V); assay: TEVC of ATP-induced currents, S15V-rP2X3R expressed in X. laevis oocytes (peak current protocol); format: cell-based; conditions: 1 µM ATP
T2 construct: expressed in transfected cells; host or cells: Xenopus laevis oocytes (cRNA injection)
T2 sequence (P49654 1-397 S15V): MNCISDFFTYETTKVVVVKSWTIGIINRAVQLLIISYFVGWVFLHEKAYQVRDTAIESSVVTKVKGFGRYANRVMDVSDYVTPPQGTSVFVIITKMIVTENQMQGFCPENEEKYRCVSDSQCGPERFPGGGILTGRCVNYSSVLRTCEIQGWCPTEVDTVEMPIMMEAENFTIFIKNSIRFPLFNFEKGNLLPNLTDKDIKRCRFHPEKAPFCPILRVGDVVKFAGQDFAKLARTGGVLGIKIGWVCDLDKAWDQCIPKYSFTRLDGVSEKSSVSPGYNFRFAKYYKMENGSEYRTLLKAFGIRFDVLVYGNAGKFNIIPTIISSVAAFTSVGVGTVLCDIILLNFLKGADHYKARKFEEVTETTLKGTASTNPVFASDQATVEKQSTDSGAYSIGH
Description: Oocyte expression plasmids encoding the wild-type (wt) and N-terminally His-tagged (His-) fusion constructs of the hP2X2R, hP2X3R, hP2X4R, and hP2X7R, and the mutant His-^20RMVL^23KVIV^23S^26N-hP2X1R, S^15V-rP2X3R, and His-S^15V-hP2X3R were the same as used in previous research ([Hausmann et al., 2006]; [Wolf et al., 2011]; [Hausmann et al., 2014]; [Obrecht et al., 2019]). In most cases, the N-terminal His-tagged variants of P2XRs were used here and in the previous studies to allow biochemical analyses on affinity-purified proteins using the same constructs. Although this was not required for the present study, it allows for better comparability with our previous studies. […]
Ion currents mediated by P2X receptors were evoked by the indicated concentration of ATP or α,β-meATP and were recorded 1 or 2 days after cRNA injection at ambient temperature at a holding potential of −60 mV by two-electrode voltage clamp (TEVC) as previously described ([Hausmann et al., 2006]). […]

Row | Structure (SMILES) | increase in hP2X2R current amplitude (potentiation) on co-application with ATP (hP2X2R; 10 µM ATP, compared to steady-state current in absence of the drug) [fold] | IC50 (hP2X2R; 10 µM ATP, steady-state protocol, * no inhibition, but potentiation) | Max. inhibition at 1 mM (hP2X2R; 10 µM ATP, * no inhibition, but potentiation) | agonist effect (current induced in the absence of ATP) (hP2X2R; 100 µM diclofenac, 300 µM FFA, absence of ATP) | IC50 (S15V-rP2X3R; X. laevis oocytes) [µM] | inhibitory effect at 100 µM FFA (S15V-rP2X3R; 100 µM FFA) [%] | EC50 (hP2X2R; 10 µM ATP, concentration–response curve, read-out: half-maximal potentiation value) [µM]
1 | O=C(O)Cc1ccccc1Nc1c(Cl)cccc1Cl [Diclofenac, diclofenac] | 1.7 | no inh.* | no inh.* | Neither 100 µM diclofenac nor 300 µM FFA induced current |  |  | 
2 | O=C(O)c1ccccc1Nc1cccc(C(F)(F)F)c1 [Flufenamic acid, flufenamic acid] |  |  |  |  | 264 | 25 | 158
